Tests used:
[1] = Dissolution in SG media containing methyl cellulose polymer, Example 2; format: physicochemical; details: SG media with methyl cellulose polymer, Average (Standard Error of the Mean)
From the text: (§1) This Example described further characterization of a variety of drugs in MOF-5. Methyl cellulose polymer was included in both SG and PBS) dissolution media to inhibit precipitation of drug molecules at high supersaturation and to serve as a proxy for what would be an extensive formulation process of this supersaturating drug delivery system. […] Immediate release of CUR molecules from CUR@MOF-5 via MOF hydrolytic decomposition leads to rapid dissolution which generates high supersaturation in the first 60 min (FIGS. 5a and b). […] This immediate drug release from drug@MOF-5 composite is in contrast with controlled drug release from an amorphous drug@MOF composite with a water stable framework ([…] al., Chem. Commun. 2015, 51, 13878).

[2] = Dissolution in PBS media containing methyl cellulose polymer, Example 2; format: physicochemical; details: PBS media with methyl cellulose polymer, Average (Standard Error of the Mean)
From the text: as §1

[3] = Dissolution and supersaturation in simulated gastric (SG) media, UV-vis, Example 1; format: physicochemical; details: 37° C., Average (Standard Error of the Mean)
Protocol: (§2) To determine the dissolution and supersaturation behavior in SG and PBS media of all CUR, SUL, CUR@MOF-5 and SUL@MOF-5 composites and their physical mixture samples, UV-vis spectroscopy (which is applied to monitor the dissolution process) was used. Concentration of CUR and SUL at 37° C. was determined. FIGS. 4a-d illustrate the solubility of pure CUR, CUR@MOF-5 composite and physical mixture and pure SUL, SUL@MOF-5 composite and physical mixture in SG and PBS media respectively. […] Because the immediate release of CUR molecules (from CUR@mof-5 composite) led to rapid dissolution, which generates high supersaturation in the first 60 min. […] Subsequently, a crystallization process occurs accompanied by a decrease in CUR concentration in both media.

[4] = Dissolution and supersaturation in phosphate buffer saline (PBS) media, UV-vis, Example 1; format: physicochemical; details: for AUC0-4 / Cmax: 37° C., Average (Standard Error of the Mean)
Protocol: as §2

mouse model = details: oral, Ullmann's Encyclopedia; cited from earlier work

AUC0-4 [1]	Cmax [1]	AUC0-4 [2]	Cmax [2]	AUC0-4 [3]	Cmax [3]	AUC0-4 [4]	Cmax [4]	dissolution behavior in PBS media [4]	Compound	lethal dose, LD50 (mouse model)
0.39(6) mg*h/mL	2.12(21) μg/mL	0.15(2) mg*h/mL	0.95(4) μg/mL	0.41(6) mg*h/mL	1.99(4) μg/mL	0.22(3) mg*h/mL	1.12(7) μg/mL	–	COc1cc(/C=C/C(=O)CC(=O)/C=C/c2ccc(O)c(OC)c2)ccc1O [CUR, curcumin]	–
1.38(2) mg*h/mL	6.84(7) μg/mL	–	–	1.32(2) mg*h/mL	6.01(6) μg/mL	15.82(21) mg*h/mL	68.65(91) μg/mL	fully dissolved	CC1=C(CC(=O)O)c2cc(F)ccc2/C1=C\c1ccc([S+](C)[O-])cc1 (stereo not drawn) [SUL, sulindac]	–
–	–	5.89(9) mg*h/mL	26.89(8) μg/mL	–	–	–	–	–	Nc1nc(N)c2nc(-c3ccccc3)c(N)nc2n1 [TAT, triamterene]	–
–	–	–	–	–	–	–	–	–	O=C(O)c1ccc(C(=O)O)cc1 [terephthalic acid]	over 1 g/kg
